Measured values from patent publication US20250152526A1, “USES OF IVALTINOSTAT FOR TREATING PANCREATIC CANCER” (CG PHARMACEUTICALS, INC, priority 2022, published 2025).

What was measured:
CYP1A2 = target: T1, CYP1A2 (Homo sapiens, UniProt P05177); assay: in vitro CYP inhibition; assay type: in vitro ADME
T1 sequence (P05177 1-516): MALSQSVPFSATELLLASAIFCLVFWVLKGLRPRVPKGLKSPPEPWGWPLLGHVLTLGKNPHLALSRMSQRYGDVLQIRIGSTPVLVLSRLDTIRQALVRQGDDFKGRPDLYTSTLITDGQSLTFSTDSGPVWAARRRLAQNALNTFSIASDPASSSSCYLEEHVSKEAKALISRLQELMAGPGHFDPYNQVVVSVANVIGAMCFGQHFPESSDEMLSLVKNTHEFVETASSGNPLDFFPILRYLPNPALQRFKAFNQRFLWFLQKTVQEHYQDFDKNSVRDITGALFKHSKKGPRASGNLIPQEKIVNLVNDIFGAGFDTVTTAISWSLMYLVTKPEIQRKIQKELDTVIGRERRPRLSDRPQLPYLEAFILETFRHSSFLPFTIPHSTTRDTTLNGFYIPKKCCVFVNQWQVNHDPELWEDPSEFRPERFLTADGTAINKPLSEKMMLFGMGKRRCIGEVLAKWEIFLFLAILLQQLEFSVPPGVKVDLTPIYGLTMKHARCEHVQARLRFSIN
Text: (§1) Concomitant use of drugs that are moderate or strong inhibitors or inducers of these CYP enzymes should be avoided. […] Concomitant use of drugs that are substrates of CYP2D6 and have a narrow therapeutic index is not advised.

CYP2C9 = CYP2C9 (Homo sapiens, UniProt P11712); assay: in vitro CYP inhibition; assay type: in vitro ADME
Chain of CYP2C9 (P11712 whole entry): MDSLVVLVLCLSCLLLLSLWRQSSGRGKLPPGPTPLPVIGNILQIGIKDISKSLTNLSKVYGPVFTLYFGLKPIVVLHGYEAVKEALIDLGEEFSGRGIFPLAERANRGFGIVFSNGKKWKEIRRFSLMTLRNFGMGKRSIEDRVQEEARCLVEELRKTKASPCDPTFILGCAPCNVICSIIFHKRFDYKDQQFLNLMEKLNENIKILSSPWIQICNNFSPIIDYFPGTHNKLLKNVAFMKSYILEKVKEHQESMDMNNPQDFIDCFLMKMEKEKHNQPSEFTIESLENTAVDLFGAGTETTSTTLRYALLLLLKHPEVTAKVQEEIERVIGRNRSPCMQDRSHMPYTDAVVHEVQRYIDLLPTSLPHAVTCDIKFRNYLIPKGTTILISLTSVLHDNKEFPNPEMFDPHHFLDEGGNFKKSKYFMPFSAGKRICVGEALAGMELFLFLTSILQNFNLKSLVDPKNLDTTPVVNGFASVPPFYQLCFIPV
Text: as §1

CYP3A4 = CYP3A4 (Homo sapiens, UniProt P08684); assay: in vitro CYP inhibition; assay type: in vitro ADME
Chain of CYP3A4 (P08684 whole entry): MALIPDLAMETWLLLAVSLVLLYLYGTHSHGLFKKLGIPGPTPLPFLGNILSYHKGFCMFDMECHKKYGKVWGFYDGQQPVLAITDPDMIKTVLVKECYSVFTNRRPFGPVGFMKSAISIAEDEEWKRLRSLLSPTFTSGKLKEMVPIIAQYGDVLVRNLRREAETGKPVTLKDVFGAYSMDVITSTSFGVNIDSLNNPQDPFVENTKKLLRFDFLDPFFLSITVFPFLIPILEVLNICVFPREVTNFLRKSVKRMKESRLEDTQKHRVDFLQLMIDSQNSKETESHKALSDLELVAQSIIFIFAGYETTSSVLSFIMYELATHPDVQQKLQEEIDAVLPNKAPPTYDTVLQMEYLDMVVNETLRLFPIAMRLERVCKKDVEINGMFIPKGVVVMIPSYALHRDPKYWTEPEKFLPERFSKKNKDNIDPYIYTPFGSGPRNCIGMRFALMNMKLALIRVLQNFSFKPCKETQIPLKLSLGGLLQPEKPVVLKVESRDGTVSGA
Text: as §1

CYP2D6 [1] = target: T2, CYP2D6 (Homo sapiens, UniProt P10635); assay: in vitro CYP inhibition; assay type: in vitro ADME
T2 sequence (P10635 whole entry): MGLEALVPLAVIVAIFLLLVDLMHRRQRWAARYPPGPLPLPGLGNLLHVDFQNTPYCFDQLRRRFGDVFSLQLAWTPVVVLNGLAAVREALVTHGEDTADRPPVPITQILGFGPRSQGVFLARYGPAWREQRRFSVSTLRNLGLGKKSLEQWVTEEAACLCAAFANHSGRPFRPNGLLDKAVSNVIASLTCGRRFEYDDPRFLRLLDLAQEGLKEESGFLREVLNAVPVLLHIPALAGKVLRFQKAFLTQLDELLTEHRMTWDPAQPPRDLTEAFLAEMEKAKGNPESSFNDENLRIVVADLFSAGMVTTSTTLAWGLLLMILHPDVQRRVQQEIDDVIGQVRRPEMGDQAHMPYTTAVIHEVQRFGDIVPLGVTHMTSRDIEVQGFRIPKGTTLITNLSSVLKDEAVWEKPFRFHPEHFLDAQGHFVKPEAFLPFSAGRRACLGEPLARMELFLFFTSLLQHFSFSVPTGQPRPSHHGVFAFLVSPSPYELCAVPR
Text: as §1

CYP2C19 = CYP2C19 (Homo sapiens, UniProt P33261); assay: in vitro CYP inhibition; assay type: in vitro ADME
Chain of CYP2C19 (P33261 whole entry): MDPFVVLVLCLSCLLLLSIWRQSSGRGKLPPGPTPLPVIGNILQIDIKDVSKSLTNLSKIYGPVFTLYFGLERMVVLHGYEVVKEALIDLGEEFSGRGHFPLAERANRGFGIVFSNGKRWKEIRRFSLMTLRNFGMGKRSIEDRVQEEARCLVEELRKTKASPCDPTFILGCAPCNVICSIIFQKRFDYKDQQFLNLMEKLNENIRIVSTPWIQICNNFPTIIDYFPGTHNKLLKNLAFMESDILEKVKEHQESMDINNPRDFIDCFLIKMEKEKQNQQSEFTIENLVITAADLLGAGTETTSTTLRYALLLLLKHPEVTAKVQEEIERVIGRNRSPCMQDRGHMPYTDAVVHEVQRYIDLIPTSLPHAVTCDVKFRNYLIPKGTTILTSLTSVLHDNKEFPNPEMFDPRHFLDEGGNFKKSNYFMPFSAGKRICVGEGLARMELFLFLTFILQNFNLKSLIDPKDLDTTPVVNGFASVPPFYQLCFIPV
Text: as §1

CYP3A = assay: nonclinical CYP substrate studies; assay type: in vitro ADME
Text: as §1

CYP2D6 [2] = target: T2, CYP2D6; assay: nonclinical CYP substrate studies; assay type: in vitro ADME
Text: as §1

[3] = Phase 1/2 study of ivaltinostat (IV) in combination with gemcitabine and erlotinib
Experimental: Ivaltinostat was administered on Days 1, 8 and 15 of a 28-day cycle in combination with gemcitabine (1000 mg/m^2; IV on Days 1, 8, and 15) and erlotinib (100 mg orally QD).
In the Phase 2 component of the study, 24 subjects received ivaltinostat at a dose level of 250 mg/m^2 in combination of gemcitabine (1000 mg/m^2; IV on Days 1, 8, and 15) and erlotinib (100 mg orally QD). In Phase 2, planned treatment duration was up to 6 cycles, but treatment could continue beyond 6 cycles if there was no progression of disease, at the discretion of the subject and treating physician.

[4] = system: metastatic pancreatic cancer; conditions: first line; cited from earlier work
[5] = system: germline BRCA-mutated metastatic pancreatic cancer; conditions: cited from earlier work
pancreatic cancer = conditions: 1250 mg/m^2 twice daily for 2 weeks followed by 1-week rest, first line; cited from earlier work
[6] = Phase 2, 250 mg/m^2 plus gemcitabine and erlotinib
[7] = Phase 2, 16 evaluable subjects, plus gemcitabine and erlotinib
[8] = Phase 2, 16 subjects with at least one tumor evaluation, plus gemcitabine and erlotinib

CN(C)CCCNC(=O)/C(=C/CCCCC(=O)NO)COc1cccc2ccccc12.O=P(O)(O)O [ivaltinostat, (E)-N1-(3-(dimethylamino)propyl)-N8-hydroxy-2-((naphthalen-1-yloxy)methyl)oct-2-enediamide phosphate]
IC50 (CYP1A2): > 10 µM
IC50 (CYP2C9): > 90 µM
IC50 (CYP3A4): > 10 µM
IC50 (CYP2D6 [1]): 5.5 µM
IC50 (CYP2C19): > 90 µM
substrate for CYP3A (CYP3A): substrate
substrate for CYP2D6 (CYP2D6 [2]): substrate
anemia, grade 3 treatment-related AE frequency [3, 6]: 17%
anemia, grade 4 treatment-related AE frequency [3, 6]: 0%
deaths related to SAEs considered related to the investigational drugs [3, 6]: no deaths
discontinuation of study drug due to an AE [3, 6]: No subjects discontinued
neutrophil count decreased, grade 3 treatment-related AE frequency [3, 6]: 13%
neutrophil count decreased, grade 4 treatment-related AE frequency [3, 6]: 17%
platelet count decreased, grade 3 treatment-related AE frequency [3, 6]: 17%
platelet count decreased, grade 4 treatment-related AE frequency [3, 6]: 13%
tolerability [3, 6]: generally well tolerated
partial responses [3, 7]: 25%
partial responses, number of patients [3, 7]: 4 patients
stable disease [3, 7]: 68.8%
stable disease, number of patients [3, 7]: 11 patients
disease control rate (DCR) [3, 8]: 93.8%
objective response rate (ORR) [3, 8]: 25.0%

FOLFIRINOX
median progression-free survival (PFS) [4]: 6.4 months
overall survival (OS) [4]: 11.1 months

O=C(c1cc(Cc2n[nH]c(=O)c3ccccc23)ccc1F)N1CCN(C(=O)C2CC2)CC1 [olaparib]
median PFS ([5]; gBRCA patients after ≥16 weeks of platinum-based therapy, vs. placebo): 7.4 months
HR (PFS vs. placebo) ([5]; gBRCA patients, p=0.004): 0.53

CCCCCOC(=O)Nc1nc(=O)n([C@@H]2O[C@H](C)[C@@H](O)[C@H]2O)cc1F [Capecitabine, capecitabine]
efficacy and tolerability of dose schedule (pancreatic cancer): effective and tolerable
